According to patent US20200002670A1, “Generation of Endocrine Progenitor Cells from Human Pluripotent Stem Cells Using Small Molecules” (Novo Nordisk A/S, priority 2013, published 2020):

Columns and labels:
Format in all cases: cell-based, human
[1] = test system: pancreatic endoderm cells; assay: NGN3/NKX2.2 double positive cells by immunostaining and InCell imaging after PE to EP differentiation
Method: After three days of EP differentiation, at EP day 4, media were aspirated followed by fixation of the cells at room temperature for 30 min with 4% paraformaldehyde (VWR, 97.131.000). Cells were washed with PBS and permeabilized with 0.5% Triton X-100 (Sigma, 9002-93-1) for 10 min, washed and blocked in 0.5% TNB-buffer (Perkin Elmer) for 30 min at room temperature. Primary antibodies, sheep anti-NGN3 (R&D systems #AF3444) and rabbit anti-NKX2.2 (Sigma #HPA003468) were diluted 1:1000 and 1:500, respectively, in 0.1% Triton X-100 in PBS and added to each well for overnight incubation at 4° C. Cells were washed three times with PBS. DAPI (4′,6-diamidino-2-phenylindole, Applichem, A4099.0010) and secondary antibodies, Alexa Fluor 488 donkey anti-goat and Alexa Fluor 594 donkey anti-rabbit (both Invitrogen) were diluted 1:1000 in 0.1% Triton X-100 in PBS and added to each well for 45 min. Cells were washed five times and left in 200 μL PBS for imaging. Imaging was performed using the InCell Analyzer 2000 (GE Healthcare). 4 fields per well with 10× objective were captured. The total cell number based in the DAPI counterstaining and the number of NGN3/NKX2.2 double positive cells was determined using InCell Developer Toolbox 1.8 (GE Healthcare). The fraction of NGN3/NKX2.2 double positive cells were quantified using the InCell developer toolbox software (GE Healthcare) and normalized to the combined protocol K&N (example 2) on each plate and the % effect was calculated (% effect NGN3/NKX2.2 double positive=((S−Sneg)/(|Spos−Sneg|))*100). Wherein S is % NGN3/NKX2.2 double positive cells for a given compound combination, Sneg and Spos are % NGN3/NKX2.2 double positive cells for the negative control and combined protocol K&N, respectively).
An EP cell population was prepared according to examples 1 and 2. However, in addition to the reagents used in example 2 the small molecules listed in table 3 were added for three days at concentrations specified in table 3 below in concentrations as shown. After three days of EP differentiation media were aspirated followed by fixation of the cells at room temperature for 30 min with 4% paraformaldehyde (VWR, 97.131.000). Cells were washed with PBS and permeabilized with 0.5% Triton X-100 (Sigma, 9002-93-1) for 10 min, washed and blocked in 0.5% TNB-buffer (Perkin Elmer) for 30 min at room temperature. Primary antibodies, sheep anti-NGN3 (R&D systems #AF3444) and rabbit anti-NKX2.2 (Sigma #HPA003468) were diluted 1:1000 and 1:500, respectively, in 0.1% Triton X-100 in PBS and added to each well for overnight incubation at 4° C. Cells were washed three times with PBS. DAPI (4′,6-diamidino-2-phenylindole, Applichem, A4099.0010) and secondary antibodies, Alexa Fluor 488 donkey anti-goat and Alexa Fluor 594 donkey anti-rabbit (both Invitrogen) were diluted 1:1000 in 0.1% Triton X-100 in PBS and added to each well for 45 min. Cells were washed five times and left in 200 μL PBS for imaging.
Imaging was performed using the InCell Analyzer 2000 (GE Healthcare). 4 fields per well with 10× objective were captured. The total cell number based in the DAPI counterstaining and the number of NGN3/NKX2,2 double positive cells was determined using InCell Developer Toolbox 1.8 (GE Healthcare). The fraction of NGN3/NKX2.2 double positive cells were quantified using the InCell developer toolbox software (GE Healthcare) and normalized to the combined protocol K&N on each plate and the % effect was calculated (% effect NGN3/NKX2.2 double positive=((S−Sneg)/(|Spos−Sneg|))*100). Wherein S is % NGN3/NKX2.2 double positive cells for a given compound combination, Sneg and Spos are % NGN3/NKX2.2 double positive cells for the negative control and combined protocol K&N, respectively).

[2] = test system: CHiPS2 (iPS) derived pancreatic endoderm cells; assay: NGN3/NKX2.2 double positive cells by imaging, small molecule combinations, CHiPS2 (iPS); settings: Method of example 2 + 2.5 μM DAPT
Method: (§1) An EP cell population was prepared according to example 2. However, in addition to the reagents used in example 2, certain small molecules listed in table 3 were added either alone or in combination during the three days of EP differentiation. After three days of EP differentiation media were aspirated followed by fixation of the cells at room temperature for 30 min with 4% paraformaldehyde (VWR, 97.131.000). Cells were washed with PBS and permeabilized with 0.5% Triton X-100 (Sigma, 9002-93-1) for 10 min, washed and blocked in 0.5% TNB-buffer (Perkin Elmer) for 30 min at room temperature. […] Cells were washed three times with PBS. DAPI (4',6-diamidino-2-phenylindole, Applichem, […]10) and secondary antibodies, Alexa Fluor 488 donkey anti-goat and Alexa Fluor 594 donkey anti-rabbit (both Invitrogen) were diluted 1:1000 in 0.1% Triton X-100 in PBS and added to each well for 45 min. Cells were washed five times and left in 200 μL PBS for imaging. Imaging was performed using the InCell Analyzer 2000 (GE Healthcare). 4 fields per well with 10× objective were captured.

[3] = test system: SA121 (hES) derived pancreatic endoderm cells; assay: NGN3/NKX2.2 double positive cells by imaging, small molecule combinations, SA121 (hES); settings: Method of example 2 + 2.5 μM DAPT
Method: as §1

[4] = 10 μM added to method of example 2 for three days
[5] = 0.5 μM added to method of example 2 for three days
[6] = 5 μM added to method of example 2 for three days
[7] = 0.1 μM added to method of example 2 for three days
[8] = 1 μM added to method of example 2 for three days

SMILES | % effect NGN3/NKX2.2 double positive cells [1, 4] [%] | % effect NGN3/NKX2.2 double positive cells [1, 6] [%] | % effect NGN3/NKX2.2 double positive cells [1, 8] [%] | other results
Cn1cnc2cc3c(Nc4cccc(Br)c4)ncnc3cc21 [BPIQ-I] | 350 | – | – | –
C[C@H](NC(=O)Cc1cc(F)cc(F)c1)C(=O)N[C@@H]1C(=O)N(C)c2ccccc2-c2ccccc21 [CompE] | – | – | – | % effect NGN3/NKX2.2 double positive cells ([1]; 5 nM added to method of example 2 for three days): 250%; % effect NGN3/NKX2.2 double positive cells ([1]; 50 nM added to method of example 2 for three days): 325%; % effect NGN3/NKX2.2 double positive cells ([1]; 500 nM added to method of example 2 for three days): 395%
C[C@H](NC(=O)Cc1cc(F)cc(F)c1)C(=O)N[C@H](C(=O)OC(C)(C)C)c1ccccc1 [DAPT] | – | – | – | % effect NGN3/NKX2.2 double positive cells [1, 5]: 150%; % effect NGN3/NKX2.2 double positive cells ([1]; 2.5 μM added to method of example 2 for three days): 350%; % effect NGN3/NKX2.2 double positive cells ([1]; 25 μM added to method of example 2 for three days): 300%; % effect NGN3/NKX2.2 double positive cells, CHiPS2 (iPS) [2]: 167%; % effect NGN3/NKX2.2 double positive cells, SA121 (hES) [3]: 165%
CN(C)c1ccc(/C=C2/C(=O)Nc3ccccc32)cc1 [DMBI, (Z)-3-[4-(Dimethylamino)benzylidenyl]indolin-2-one] | 231 | 167 | – | –
O=C(c1ccccc1)c1ccc(N2CCOCC2)cc1O [DNA-PK inhibitor V] | – | 370 | – | –
COc1cc2ncnc(Nc3ccc(F)c(Cl)c3)c2cc1OCCCN1CCOCC1 [Gefitinib] | – | 325 | 311 | % effect NGN3/NKX2.2 double positive cells [1, 7]: 222%
CCOc1nc(NC(=O)Cc2cc(OC)ccc2OC)cc(N)c1C#N [JNK VIII] | 308 | 315 | 204 | % effect NGN3/NKX2.2 double positive cells [1, 7]: 160%; % effect NGN3/NKX2.2 double positive cells [1, 5]: 156%
CC(C)CC(NC(=O)C(Cc1ccccc1)CC(O)C(Cc1ccccc1)NC(=O)OC(C)(C)C)C(=O)NC(Cc1ccccc1)C(N)=O (stereo not shown) [L6] | – | – | – | % effect NGN3/NKX2.2 double positive cells ([1]; 50 μM added to method of example 2 for three days): 150%
COc1cccc(-c2cc(=O)c3ccccc3o2)c1N [PD98059] | – | – | 165 | –
CCC(=O)Nc1ccc2ncnc(Nc3cccc(Br)c3)c2c1 [PD174265] | 274 | 374 | 240 | –
c1ccc2c(-c3ccncc3)c[nH]c2c1 [Rockout] | 199 | 208 | – | –
Cn1cc(/C=C2\C(=O)Nc3ccc(S(N)(=O)=O)cc32)c2ccccc21 [Syk inhibitor] | – | – | 157 | –
Cc1cccc(-c2nc(C(C)(C)C)[nH]c2-c2ccc3c(c2)OCO3)n1.Cl [TGFbRI inhibitor III] | – | 182 | – | –
CSc1nc(-c2ccc(F)cc2)c(-c2ccnc(NC(C)c3ccccc3)c2)[nH]1 (stereo not shown) [p38 inhibitor III] | 153 | 191 | – | –
